Laboratory results from patent US11932652B2, “Pyrrolidinyl urea derivatives and application thereof in TrkA-related diseases” (ZHANGZHOU PIEN TZE HUANG PHARMACEUTICAL CO., LTD., priority 2018, dated 2024).

Legend:
[1] = biological target: T1, CYP2C19 (Homo sapiens, UniProt P33261); experiment: Cytochrome P450 isozyme inhibitory activity test, CYP2C19; format: in vitro ADME; details: heading: Cytochrome P450 isozyme IC50, CYP2C19; human liver microsome
T1 construct: from tissue; host or cells: human liver microsomes
T1 sequence (P33261 whole entry): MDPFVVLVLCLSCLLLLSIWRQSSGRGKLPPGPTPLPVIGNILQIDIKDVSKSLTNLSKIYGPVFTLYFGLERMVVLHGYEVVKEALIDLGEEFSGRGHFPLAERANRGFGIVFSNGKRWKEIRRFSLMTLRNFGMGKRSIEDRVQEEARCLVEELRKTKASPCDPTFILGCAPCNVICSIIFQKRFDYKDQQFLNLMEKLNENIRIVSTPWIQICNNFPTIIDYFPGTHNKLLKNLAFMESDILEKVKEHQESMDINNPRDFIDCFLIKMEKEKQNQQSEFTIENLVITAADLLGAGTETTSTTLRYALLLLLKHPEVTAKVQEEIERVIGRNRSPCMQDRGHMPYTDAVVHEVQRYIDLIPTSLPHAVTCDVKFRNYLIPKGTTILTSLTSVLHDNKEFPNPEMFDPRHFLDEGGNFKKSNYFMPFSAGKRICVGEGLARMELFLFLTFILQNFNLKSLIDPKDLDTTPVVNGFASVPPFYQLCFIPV
Method: Determination of the inhibitory activity of the test compound on different human cytochrome P450 isozymes.
The test compound, standard inhibitor (100×final concentration), and a mixed substrate working solution were prepared; the microsome frozen in −80° C. refrigerator was thawed. 2 μL of the test compound and standard inhibitor solution was added to the corresponding wells, and at the same time 2 μL of the corresponding solvent was added to the non-inhibitor control wells (NIC) and blank control wells (Blank) wells; then 20 μL of mixed substrate solution was added to the corresponding wells, except for the Blank wells (20 μL of PB was added to the Blank wells); a human liver microsome solution was prepared (put back into the refrigerator immediately after using and marking the date), and then 158 μL of the human liver microsome solution was added to all wells; the above sample plate was placed in a 37° C. water bath for pre-incubation, then the coenzyme factor (NADPH) solution was prepared; 10 minutes later, 20 μL of the NADPH solution was added to all wells, and the sample plate was shaken well, placed in a 37° C. water bath and incubated for 10 minutes; at the corresponding time point, 400 μL of cold acetonitrile solution (internal standard: 200 ng/mL tolbutamide and labetalol) was added to terminate the reaction; the sample plate was evenly mixed, centrifuged at 4000 rpm for 20 minutes to precipitate proteins; 200 μL of the supernatant was added to 100 μL of water, shook well, and tested by LC/MS/MS.

[2] = system: plasma protein; experiment: Plasma protein binding rate (PPB) test, human plasma; format: in vitro ADME; details: 2 μM, dialysis 37° C. 4 hours
Method: The protein binding rates of the test compound in the plasma of humans, SD rats and Beagle dogs were determined.
796 μL of blank plasma from humans, SD rats and Beagle dogs (plasma purchased from BioreclamationIVT) were taken, 4 μL of working solution of the test compound (400 μM) or warfarin working solution (400 μM) was added and the final concentration of the test compound or warfarin was 2 μM. The sample was mixed thoroughly. The final concentration of organic phase DMSO was 0.5%; 50 μL of the plasma sample treated with the test compound or warfarin was pipetted into the sample receiving plate, and a corresponding volume of blank plasma or buffer was added immediately so that the final volume in each sample well was 100 μL, the volume ratio of plasma:dialysis buffer was 1:1; 400 μL of stop solution was added to these samples, and these samples were used as T0 samples for recovery and stability determination. To samples were stored at 2° C. to 8° C. for subsequent processing together with other dialyzed samples; 150 μL of the plasma sample treated with the test compound or warfarin was added into the dosing end of each dialysis hole, and 150 μL of blank dialysis buffer was added to the receiving end corresponding to the dialysis hole. Then the dialysis plate was sealed with gas-permeable membrane and placed in a humidified 5% CO2 incubator, and incubated at 37° C. with 100 rpm shaking for 4 hours. After the dialysis, 50 μL of the dialysis buffer sample and the dialysis plasma sample was transferred to a new sample receiving plate. […] All samples were analyzed by LC/MS/MS after protein precipitation, and the plasma protein unbound rate, binding rate and recovery rate was calculated according to the following formula: % unbound rate=100*free compound concentration at the membrane buffer side/total compound concentration at the membrane plasma side, % protein binding rate=100-% unbound rate, % recovery rate=100*(free compound concentration at the membrane buffer side+total compound concentration at the membrane plasma side)/total compound concentration before dialysis.

[3] = In vivo pharmacokinetics in beagle dogs after single administration
Method: Male beagle dogs were used as test animals, the concentration of the compound in blood after single administration was determined to evaluate the pharmacokinetic behavior.
Beagle dogs (Male, 6-12 kg, more than 6 months, Beijing Marshall Biotechnology Co., Ltd.).
The objective of the test was to study the pharmacokinetic characteristics of the test compound in non-rodent after intravenous injection and oral administration. In the experiment, the test compound was prepared into a clear solution or homogeneous suspension and administered to the beagle dogs by single intravenous injection or oral administration. In the intravenous injection group, the menstruum was a certain proportion of dimethyl sulfoxide in HP-β-cyclodextrin solution or a certain proportion of ethanol, polyethylene glycol 400 and physiological saline solution, the mixture was vortexed and subjected to ultrasonic treatment to prepare 2 mg/mL or […] clear solution, then filtered with microporous membrane for later use; in the oral administration group, the menstruum was a certain proportion of dimethyl sulfoxide in HP-β-cyclodextrin solution or a certain proportion of sodium carboxymethyl cellulose solution, the test compound was mixed with the menstruum, vortexed and subjected to ultrasonic treatment to prepare 2 mg/mL clear solution or 1 mg/mL homogeneous suspension for later use. After 2 mg/kg or 1 mg/kg intravenous administration or 10 mg/kg or 5 mg/kg oral administration to the Beagle dogs, a certain amount of whole blood samples were collected, centrifuged at 3000 g for 10 minutes, and the supernatant was separated to obtain plasma samples; then an acetonitrile solution containing internal standard with a volume 10 times that of the plasma sample was added to precipitate proteins, and then centrifuged; the supernatant was separated for analysis; LC-MS/MS analysis method was used to quantitatively analyze the blood drug concentration, and Phoenix WinNonlin software (Pharsight, USA) was used to calculate the pharmacokinetic parameters, such as peak concentration, time to peak concentration, clearance rate, half-life, area under the concentration-time curve, bioavailability, etc.
Among them, C0 is the initial concentration, T1/2 is the elimination half-life, Vdss is the steady-state apparent volume of distribution, Cl is the total clearance rate, AUC0-inf is the area under the plasma drug concentration-time curve from time 0 to infinity, Cmax is the peak concentration, Tmax is the time to peak concentration.

[4] = male, beagle, dog, plasma, 10 mg/kg, dogs, 10 mpk oral administration

- IC50 [1]: > 50 µM
- Plasma protein unbound rate, Human plasma [2]: 13.2%
- AUC(0-inf) [3, 4]: 7.69 µM·h
- Cmax [3, 4]: 3.95 µM
- Tmax [3, 4]: 0.63 h
- bioavailability [3, 4]: 33%
- half-life [3, 4]: 2.2 h
SMILES: COCCN1C[C@@H](n2ccc(F)c2)[C@H](NC(=O)Nc2c(C)c(-c3cnc(C4(F)COC4)nc3)nn2-c2ccccc2)C1 [Compound 7]
- pharmacokinetic properties and oral bioavailability (in words) ([3]; in beagle dogs): good pharmacokinetic properties and oral bioavailability
